Tests used:
Format in all cases: cell-based
[1] = test system: NF-κB; assay: NF-κB-luciferase reporter assay; conditions: Daudi and SC lymphoma cell lines; titrating doses, 24 hours
Procedure: Daudi and SC cell lines were transfected with a NF-κB-luciferase reporter construct (1 μg of DNA). Twenty four hours post-transfection, cells were treated with titrating doses of bortezomib. After 24 hours of treatment, cells were harvested and lysed with RIPA buffer. Twenty microliters of the lysate were mixed with Luciferase assay substrate (Promega, Madison, Wis.) followed by Stop & Glo reagent. Luciferase activity was then measured in a luminometer.

[2] = test system: Daudi and Raji lymphoma cell lines; assay: Apoptosis by flow cytometry (Annexin V) in lymphoma cell lines expressing p100 siRNA, treated with bortezomib
Procedure: (A) Two lymphoma cell lines, Daudi and Raji, expressing a p100 or a p105 siRNA were treated with titrating doses of bortezomib for 24 hours. […] Expression of p100 siRNA in two lymphoma cell lines, Daudi and Raji, reduce the protein levels of cleaved caspase 3 and 9. Western blot of Daudi and Raji cell lines expression p100 siRNA or luciferase were performed after 24 hours of treatment with titrating does of bortezomib.
Sequences of NF-κB2-shRNA are known. The sense shRNA oligonucleotide probes were as follows: p100, […] (SEQ ID NO: 12). Luciferase (Luc) shRNA plasmid was provided by S. Stewart. Short interfering hairpin RNA were expressed under U6 human promoter and were generated using PLKopuro.1. NF-κB2, NF-κB2-ankirin repeats region, NF-κB2-death domain and LcZ (control) were expressed under a CMV promoter and generated using a pLenti6/V5-DEST (Invitrogen Life Technologies). Recombinant lentiviruses were generated in 293T cells, for infection of all MM cell lines. Stable cell lines expressing shRNAs or the protein of interest were obtained after selecting cells with 2 μg/mL puromycin or 10 μg/mL, respectively. Cells were used for experiments two weeks after infection.

[3] = test system: RPMI; assay: Bortezomib sensitivity of MM cell line RPMI
[4] = test system: OPM and KMS11 multiple myeloma cell lines; assay: Live cell count (Yo-pro-1 iodide/PI negative) in MM cell lines stably expressing NF-κB2 constructs, treated with bortezomib; conditions: titrating doses, 24 hours; live cells
Procedure: A) Two multiple myeloma cell lines, OPM and KMS11, stably expressing the full length NF-κB2 (p100), NF-κB2-ankyrin domains, NF-κB2-death domain were generated using a pLenti6.2/V5-DEST lentivirus. Cells were then treated at titrating doses of bortezomib. After 24 hours the cells were harvested and stained with Yo-pro-1 iodide and propidium Iodide (PI, both from Invitrogen, Grand Island, N.Y.). Live cells were measured using a ImageXpress 5000A Automated Acquisition and Analysis System (Molecular Devices, Sunnyvale, Calif.), quantitating for Yo-pro-1 iodide and PI negative cells. B) OPM1 and RPMI cells stably expressing NF-κB2 (p100), NF-κB2-ankyrin domains or control vector (LacZ) were treated with 10 nM of bortezomib for 24 hours. Cells were harvested and Western blot was performed to assay for caspase 9, cleaved caspase 9 and 3 and actin.
For apoptosis studies, 10^4 cells were treated with titrating doses of doxorubicin (doses: […], Sigma) or rituximab (titrating doses: 1.5, 2.5, 5, 10 and 20 μg/mL, Biogen Idec Inc). Twenty four hours later cells were stained with Yo-pro-1 and Propidium Iodide (Invitrogen). Live cells were measured using a ImageXpress 5000A Automated Acquisition and Analysis System (Molecular Devices, Sunnyvale, Calif.), quantitating for Yo-pro-1 or PI negative cells.
Sequences of NF-κB2-shRNA are known. […]

[5] = test system: KMS11; assay: Bortezomib sensitivity of MM cell line KMS11

## CC(C)C[C@H](NC(=O)[C@H](Cc1ccccc1)NC(=O)c1cnccn1)B(O)O [bortezomib]
[1]
  effect on NF-kB luciferase reporter activity: NF-kB inhibitory effects
[2]
  bortezomib sensitivity of lymphoma cells: sensitive
[2]; titrating doses, 24 hours, Annexin V
  bortezomib-induced apoptosis on p100 siRNA expression: reduces
[3]
  bortezomib sensitivity of cell line: resistant
[4]
  sensitivity to bortezomib on expression of p100 (NF-κB2), NF-κB2-ankyrin domains and NF-κB2-death domain: restores sensitivity
[5]
  bortezomib sensitivity of cell line: resistant

Reference: patent US9856534B2, “Selecting use of proteasome inhibitors based on NF-κB2 sequence” (Emory University, priority 2011, dated 2018)
